# Assay results reported in patent publication US11419909B2, “Compositions and methods for maintaining or enhancing homeostasis or function of female lower reproductive tract” (FAIRHAVEN HEALTH, LLC, priority 2016, dated 2022).
# Settings: plant derived raw materials
smiles,measurement,value
"O=C[C@H](O)[C@@H](O)[C@H](O)CO [D-Xylose source 1, D-Xylose]",Endotoxin Level,<0.07 EU/mg
